Data as given in PubChem BioAssay AID2060885 (Molecular Pharmacology Branch, DTP, NCI, 2025).

System: NCI-H23 complex spheroids with HUVEC/MSC, viability
Experiment: Anticancer human tumor NCI-H23 cell line growth inhibition [RAS];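 also: spheroids exposed to compound for 7 days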;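 as to viability, T/C: 100% = DMSO vehicle control viability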
Conditions: for viability, T/C: stronger effect = lower value
Outline: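 Agents were tested in combination matrices in half-log decrements from a top concentration at or near clinical Cmax (10 microM if undetermined). Targets were multi-cell spheroids of tumour lines plus HUVEC and MSC stromal cells.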

[1] = curve of first compound, second compound 0.000949 µM
[2] = curve of first compound, second compound 0.003 µM
[3] = curve of first compound, second compound 0.00949 µM
[4] = curve of first compound, second compound 0.03 µM
[5] = curve of first compound, second compound 0.0949 µM
[6] = curve of first compound, second compound 0.3 µM
[7] = second compound 0.000949 µM, first compound 0.0316 µM
[8] = second compound 0.000949 µM, first compound 0.1 µM
[9] = second compound 0.000949 µM, first compound 0.316 µM
[10] = second compound 0.000949 µM, first compound 1 µM
[11] = second compound 0.003 µM, first compound 0.0316 µM
[12] = second compound 0.003 µM, first compound 0.1 µM
[13] = second compound 0.003 µM, first compound 0.316 µM
[14] = second compound 0.003 µM, first compound 1 µM
[15] = second compound 0.00949 µM, first compound 0.0316 µM
[16] = second compound 0.00949 µM, first compound 0.1 µM
[17] = second compound 0.00949 µM, first compound 0.316 µM
[18] = second compound 0.00949 µM, first compound 1 µM
[19] = second compound 0.03 µM, first compound 0.0316 µM
[20] = second compound 0.03 µM, first compound 0.1 µM
[21] = second compound 0.03 µM, first compound 0.316 µM
[22] = second compound 0.03 µM, first compound 1 µM
[23] = second compound 0.0949 µM, first compound 0.0316 µM
[24] = second compound 0.0949 µM, first compound 0.1 µM
[25] = second compound 0.0949 µM, first compound 0.316 µM
[26] = second compound 0.0949 µM, first compound 1 µM
[27] = second compound 0.3 µM, first compound 0.0316 µM
[28] = second compound 0.3 µM, first compound 0.1 µM
[29] = second compound 0.3 µM, first compound 0.316 µM
[30] = second compound 0.3 µM, first compound 1 µM

## NC1c2ccccc2OC12CCN(c1cnc3c(N4CCCc5ncccc54)n[nH]c3n1)CC2 (stereo not drawn) + C=CC(=O)N1CCN(c2nc(OCC3CCCN3C)nc3c(F)c(-c4nc(N)cc(C)c4C(F)(F)F)c(Cl)cc23)C(C)C1
Curve of first compound, second compound 0.00316 µM
  IC50: < 31.6 nM
Curve of first compound, second compound 0.01 µM
  IC50: < 31.6 nM
Curve of first compound, second compound 0.0316 µM
  IC50: < 31.6 nM
Curve of first compound, second compound 0.1 µM
  IC50: < 31.6 nM
Curve of first compound, second compound 0.316 µM
  IC50: < 31.6 nM
Curve of first compound, second compound 1 µM
  IC50: < 31.6 nM
Second compound 0.00316 µM, first compound 0.0316 µM
  viability, T/C: 36.1%
Second compound 0.00316 µM, first compound 0.1 µM
  viability, T/C: 31.4%
Second compound 0.00316 µM, first compound 0.316 µM
  viability, T/C: 23.7%
Second compound 0.00316 µM, first compound 1 µM
  viability, T/C: 20.7%
Second compound 0.00316 µM, first compound 3.16 µM
  viability, T/C: 17.5%
Second compound 0.00316 µM, first compound 10 µM
  viability, T/C: 12.2%
Second compound 0.01 µM, first compound 0.0316 µM
  viability, T/C: 32.9%
Second compound 0.01 µM, first compound 0.1 µM
  viability, T/C: 29.2%
Second compound 0.01 µM, first compound 0.316 µM
  viability, T/C: 18.9%
Second compound 0.01 µM, first compound 1 µM
  viability, T/C: 16.9%
Second compound 0.01 µM, first compound 3.16 µM
  viability, T/C: 11.4%
Second compound 0.01 µM, first compound 10 µM
  viability, T/C: 10.4%
Second compound 0.0316 µM, first compound 0.0316 µM
  viability, T/C: 27.9%
Second compound 0.0316 µM, first compound 0.1 µM
  viability, T/C: 25%
Second compound 0.0316 µM, first compound 0.316 µM
  viability, T/C: 18.2%
Second compound 0.0316 µM, first compound 1 µM
  viability, T/C: 13.6%
Second compound 0.0316 µM, first compound 3.16 µM
  viability, T/C: 11.8%
Second compound 0.0316 µM, first compound 10 µM
  viability, T/C: 10.1%
Second compound 0.1 µM, first compound 0.0316 µM
  viability, T/C: 25%
Second compound 0.1 µM, first compound 0.1 µM
  viability, T/C: 21.6%
Second compound 0.1 µM, first compound 0.316 µM
  viability, T/C: 17.8%
Second compound 0.1 µM, first compound 1 µM
  viability, T/C: 14.8%
Second compound 0.1 µM, first compound 3.16 µM
  viability, T/C: 11.8%
Second compound 0.1 µM, first compound 10 µM
  viability, T/C: 8.71%
Second compound 0.316 µM, first compound 0.0316 µM
  viability, T/C: 23.1%
Second compound 0.316 µM, first compound 0.1 µM
  viability, T/C: 23.4%
Second compound 0.316 µM, first compound 0.316 µM
  viability, T/C: 19.4%
Second compound 0.316 µM, first compound 1 µM
  viability, T/C: 14.8%
Second compound 0.316 µM, first compound 3.16 µM
  viability, T/C: 12.2%
Second compound 0.316 µM, first compound 10 µM
  viability, T/C: 11.7%
Second compound 1 µM, first compound 0.0316 µM
  viability, T/C: 26.8%
Second compound 1 µM, first compound 0.1 µM
  viability, T/C: 24.6%
Second compound 1 µM, first compound 0.316 µM
  viability, T/C: 20.1%
Second compound 1 µM, first compound 1 µM
  viability, T/C: 13.1%
Second compound 1 µM, first compound 3.16 µM
  viability, T/C: 12.8%
Second compound 1 µM, first compound 10 µM
  viability, T/C: 11.2%

## CC1(O)CCCC1n1c(=O)c(C(F)F)cc2cnc(NC3CCN(S(C)(=O)=O)CC3)nc21 (stereo not drawn) + CCn1c(-c2cccnc2C(C)OC)c2c3cc(ccc31)N1CCOC(CC(NC(=O)C(C(C)C)N(C)C(=O)C3(F)CCN(C(=O)C#CC(C)(C)N(C)C)CC3)C(=O)N3CCCC(N3)C(=O)OCC(C)(C)C2)C1
[1]
  IC50: < 31.6 nM
[2]
  IC50: < 31.6 nM
[3]
  IC50: < 31.6 nM
[4]
  IC50: < 31.6 nM
[5]
  IC50: < 31.6 nM
[6]
  IC50: < 31.6 nM
[7]
  viability, T/C: 27.5%
[8]
  viability, T/C: 18.5%
[9]
  viability, T/C: 15%
[10]
  viability, T/C: 21.3%
Second compound 0.000949 µM, first compound 3.16 µM
  viability, T/C: 18.9%
Second compound 0.000949 µM, first compound 10 µM
  viability, T/C: 1.72%
[11]
  viability, T/C: 24.7%
[12]
  viability, T/C: 16.5%
[13]
  viability, T/C: 17.4%
[14]
  viability, T/C: 17.5%
Second compound 0.003 µM, first compound 3.16 µM
  viability, T/C: 20.4%
Second compound 0.003 µM, first compound 10 µM
  viability, T/C: 1.47%
[15]
  viability, T/C: 25.2%
[16]
  viability, T/C: 14.7%
[17]
  viability, T/C: 15.8%
[18]
  viability, T/C: 17.1%
Second compound 0.00949 µM, first compound 3.16 µM
  viability, T/C: 17.4%
Second compound 0.00949 µM, first compound 10 µM
  viability, T/C: 2.12%
[19]
  viability, T/C: 23%
[20]
  viability, T/C: 16.8%
[21]
  viability, T/C: 15.1%
[22]
  viability, T/C: 18.7%
Second compound 0.03 µM, first compound 3.16 µM
  viability, T/C: 14.6%
Second compound 0.03 µM, first compound 10 µM
  viability, T/C: 2.81%
[23]
  viability, T/C: 19.2%
[24]
  viability, T/C: 17.1%
[25]
  viability, T/C: 17.8%
[26]
  viability, T/C: 15.5%
Second compound 0.0949 µM, first compound 3.16 µM
  viability, T/C: 14.9%
Second compound 0.0949 µM, first compound 10 µM
  viability, T/C: 2.88%
[27]
  viability, T/C: 19.5%
[28]
  viability, T/C: 16.9%
[29]
  viability, T/C: 15.1%
[30]
  viability, T/C: 16.7%
Second compound 0.3 µM, first compound 3.16 µM
  viability, T/C: 15.6%
Second compound 0.3 µM, first compound 10 µM
  viability, T/C: 2.05%

## CC(=O)OC12COC1CC(O)C1(C)C(=O)C(O)C3=C(C)C(OC(=O)C(O)C(NC(=O)OC(C)(C)C)c4ccccc4)CC(O)(C(OC(=O)c4ccccc4)C21)C3(C)C (stereo not drawn)
Compound 0.0316 µM
  viability, T/C: 31.2% [middle of 4 runs]
Compound 0.1 µM
  viability, T/C: 32.3% [middle of 4 runs]
Compound 0.316 µM
  viability, T/C: 28.2% [middle of 4 runs]
Compound 1 µM
  viability, T/C: 34.6% [middle of 4 runs]
Compound 3.16 µM
  viability, T/C: 50.4% [middle of 4 runs]
Compound 10 µM
  viability, T/C: 63.5% [middle of 4 runs]
Curve of compound
  IC50: < 31.6 nM

## C=CC(=O)Nc1cc(Nc2nccc(-c3cn(C)c4ccccc34)n2)c(OC)cc1N(C)CCN(C)C + CCn1c(-c2cc(N3CCN(C)CC3)cnc2C(C)OC)c2c3cc(ccc31)-c1csc(n1)CC(NC(=O)C1CC1C)C(=O)N1CCCC(N1)C(=O)OCC(C)(C)C2
[1]
  IC50: < 3.16 nM
[2]
  IC50: < 3.16 nM
[3]
  IC50: < 3.16 nM
[4]
  IC50: < 3.16 nM
[5]
  IC50: < 3.16 nM
[6]
  IC50: < 3.16 nM
Second compound 0.000949 µM, first compound 0.00316 µM
  viability, T/C: 51.5%
Second compound 0.000949 µM, first compound 0.01 µM
  viability, T/C: 45.7%
[7]
  viability, T/C: 34.4%
[8]
  viability, T/C: 50.4%
[9]
  viability, T/C: 31.4%
[10]
  viability, T/C: 27.6%
Second compound 0.003 µM, first compound 0.00316 µM
  viability, T/C: 35.8%
Second compound 0.003 µM, first compound 0.01 µM
  viability, T/C: 32.6%
[11]
  viability, T/C: 30.1%
[12]
  viability, T/C: 29.8%
[13]
  viability, T/C: 27.1%
[14]
  viability, T/C: 19%
Second compound 0.00949 µM, first compound 0.00316 µM
  viability, T/C: 30.7%
Second compound 0.00949 µM, first compound 0.01 µM
  viability, T/C: 27.9%
[15]
  viability, T/C: 29.3%
[16]
  viability, T/C: 25.4%
[17]
  viability, T/C: 22.1%
[18]
  viability, T/C: 15.6%
Second compound 0.03 µM, first compound 0.00316 µM
  viability, T/C: 27.5%
Second compound 0.03 µM, first compound 0.01 µM
  viability, T/C: 23.6%
[19]
  viability, T/C: 29.1%
[20]
  viability, T/C: 25%
[21]
  viability, T/C: 17.5%
[22]
  viability, T/C: 15%
Second compound 0.0949 µM, first compound 0.00316 µM
  viability, T/C: 18.7%
Second compound 0.0949 µM, first compound 0.01 µM
  viability, T/C: 19.6%
[23]
  viability, T/C: 22.2%
[24]
  viability, T/C: 16.4%
[25]
  viability, T/C: 8.97%
[26]
  viability, T/C: 12.2%
Second compound 0.3 µM, first compound 0.00316 µM
  viability, T/C: 16.5%
Second compound 0.3 µM, first compound 0.01 µM
  viability, T/C: 18.1%
[27]
  viability, T/C: 17.2%
[28]
  viability, T/C: 12.3%
[29]
  viability, T/C: 10.5%
[30]
  viability, T/C: 11.8%
